Test results taken from ChEMBL document CHEMBL1201862, “PubChem BioAssay data set” (2004).
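Assay format: 96-well plates, 48-hour exposure. The concentration for 50% growth inhibition is given as GI50.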 The source made the active and inactive calls. Cut-off read from the data, not from the text of the source: active = GI50 up to about 1.1 µM and inactive = higher.

What was measured:
Assay in all cases: NCI anticancer screen, dose series, 48 h
UACC-257 = tested on: UACC-257
HL-60 = tested on: HL-60
NCI-H522 = tested on: NCI-H522
OVCAR-5 = tested on: OVCAR-5
RXF 393 = tested on: RXF 393
SK-MEL-2 = tested on: SK-MEL-2
MOLT-4 = tested on: MOLT-4
M14 = tested on: M14
CAKI-1 = tested on: CAKI-1
UACC-62 = tested on: UACC-62
HOP-18 = tested on: HOP-18
A498 = tested on: A498
SW-620 = tested on: SW-620
SK-MEL-28 = tested on: SK-MEL-28
NCI-H226 = tested on: NCI-H226
HCT-15 = tested on: HCT-15
U-251 = tested on: U-251
OVCAR-3 = tested on: OVCAR-3
Malme-3M = tested on: Malme-3M
UO-31 = tested on: UO-31
NCI-H460 = tested on: NCI-H460
IGROV-1 = tested on: IGROV-1
KM-20L2 = tested on: KM-20L2
OVCAR-8 = tested on: OVCAR-8
DMS-114 = tested on: DMS-114
HT-29 = tested on: HT-29
SNB-75 = tested on: SNB-75
SK-OV-3 = tested on: SK-OV-3
HOP-92 = tested on: HOP-92
M19-MEL = tested on: M19-MEL
RPMI-8226 = tested on: RPMI-8226
HCT-116 = tested on: HCT-116
LXFL 529 = tested on: LXFL 529
NCI-H23 = tested on: NCI-H23
OVCAR-4 = tested on: OVCAR-4
SN12C = tested on: SN12C
SF-268 = tested on: SF-268
ACHN = tested on: ACHN
DMS-273 = tested on: DMS-273
LOX IMVI = tested on: LOX IMVI
SNB-78 = tested on: SNB-78
DLD-1 = tested on: DLD-1
K562 = tested on: K562
786-0 = tested on: 786-0
A549 = tested on: A549
TK-10 = tested on: TK-10
KM12 = tested on: KM12
CCRF-CEM = tested on: CCRF-CEM
HCC 2998 = tested on: HCC 2998
COLO 205 = tested on: COLO 205
SR = tested on: SR
EKVX = tested on: EKVX
SF-539 = tested on: SF-539
SNB-19 = tested on: SNB-19
SK-MEL-5 = tested on: SK-MEL-5
SF-295 = tested on: SF-295
XF498 = tested on: XF498
HOP-62 = tested on: HOP-62

Measured: GI50

CCOC(=O)N1CCN(P(=O)(Nc2ccc3[nH]c(NC(=O)OC)nc3c2)Oc2ccccc2)CC1 (configuration not stated)
inactive: UACC-257 > 100 µM | HL-60 > 100 µM | NCI-H522 37.5 µM | OVCAR-5 > 100 µM | RXF 393 > 100 µM | SK-MEL-2 > 100 µM | MOLT-4 > 100 µM | M14 > 100 µM | CAKI-1 > 100 µM | UACC-62 51.1 µM | HOP-18 87.9 µM | A498 > 100 µM | SW-620 > 100 µM | SK-MEL-28 > 100 µM | NCI-H226 > 100 µM | U-251 > 100 µM | OVCAR-3 50.7 µM | Malme-3M 31.6 µM | UO-31 > 100 µM | NCI-H460 > 100 µM | IGROV-1 > 100 µM | KM-20L2 > 100 µM | OVCAR-8 > 100 µM | DMS-114 > 100 µM | HT-29 > 100 µM | SNB-75 77.6 µM | SK-OV-3 > 100 µM | HOP-92 > 100 µM | M19-MEL > 100 µM | RPMI-8226 81.8 µM | HCT-116 > 100 µM | LXFL 529 > 100 µM | NCI-H23 > 100 µM | OVCAR-4 > 100 µM | SN12C > 100 µM | SF-268 > 100 µM | ACHN > 100 µM | DMS-273 > 100 µM | LOX IMVI > 100 µM | SNB-78 > 100 µM | DLD-1 > 100 µM | K562 35 µM | 786-0 > 100 µM | A549 > 100 µM | TK-10 > 100 µM | KM12 > 100 µM | CCRF-CEM 86.1 µM | HCC 2998 > 100 µM | COLO 205 > 100 µM
> 100 µM: HCT-15

O=C(CCc1nnc2s/c(=C\c3ccc(Cl)c(Cl)c3)c(=O)n12)Nc1ccc(Cl)c(Cl)c1
inactive: SR 24.8 µM | UACC-257 > 100 µM | HL-60 22.8 µM | NCI-H522 25.1 µM | OVCAR-5 > 100 µM | RXF 393 28.8 µM | MOLT-4 20.7 µM | M14 > 100 µM | CAKI-1 > 100 µM | UACC-62 > 100 µM | HOP-18 75.7 µM | A498 39 µM | SW-620 > 100 µM | SK-MEL-28 > 100 µM | NCI-H226 > 100 µM | U-251 36.9 µM | OVCAR-3 29.9 µM | Malme-3M > 100 µM | UO-31 > 100 µM | NCI-H460 > 100 µM | IGROV-1 44.2 µM | KM-20L2 > 100 µM | OVCAR-8 20.4 µM | DMS-114 91.2 µM | HT-29 > 100 µM | SNB-75 58.3 µM | SK-OV-3 > 100 µM | HOP-92 86.7 µM | M19-MEL 64.7 µM | RPMI-8226 20.4 µM | HCT-116 > 100 µM | EKVX > 100 µM | LXFL 529 88.1 µM | NCI-H23 > 100 µM | OVCAR-4 73.5 µM | SN12C > 100 µM | SF-268 55.5 µM | ACHN > 100 µM | LOX IMVI 19.2 µM | SF-539 51.8 µM | K562 72.8 µM | 786-0 > 100 µM | SNB-19 45 µM | A549 > 100 µM | TK-10 > 100 µM | SK-MEL-5 43.9 µM | KM12 43.4 µM | CCRF-CEM 22.5 µM | HCC 2998 > 100 µM | SF-295 46.1 µM | XF498 38.7 µM | COLO 205 56.6 µM | HOP-62 > 100 µM
> 100 µM: HCT-15

O=C(/C=C/c1ccccc1Cl)c1ccc(Cl)c(Cl)c1
inactive: SR 21.7 µM | UACC-257 19.7 µM | HL-60 25.8 µM | NCI-H522 17.3 µM | OVCAR-5 17.6 µM | RXF 393 13.1 µM | SK-MEL-2 18 µM | MOLT-4 21.3 µM | M14 17.5 µM | CAKI-1 15.4 µM | UACC-62 19.1 µM | HOP-18 14.8 µM | A498 15.9 µM | SW-620 15.1 µM | SK-MEL-28 20.2 µM | NCI-H226 > 100 µM | U-251 17.3 µM | OVCAR-3 15.4 µM | Malme-3M 22.8 µM | UO-31 17.1 µM | NCI-H460 34.5 µM | IGROV-1 12.4 µM | KM-20L2 17.3 µM | OVCAR-8 17.7 µM | HT-29 19.8 µM | SNB-75 13 µM | SK-OV-3 24.5 µM | HOP-92 26.9 µM | M19-MEL 16.3 µM | RPMI-8226 37.7 µM | HCT-116 11.5 µM | EKVX 14.5 µM | LXFL 529 16.1 µM | NCI-H23 20 µM | OVCAR-4 12.9 µM | SN12C > 100 µM | SF-268 18.3 µM | ACHN 15.3 µM | DMS-273 19.9 µM | LOX IMVI 14.6 µM | SF-539 18.2 µM | SNB-78 16.2 µM | DLD-1 15.8 µM | K562 26.8 µM | 786-0 16.3 µM | SNB-19 16.4 µM | A549 19.5 µM | TK-10 18.5 µM | SK-MEL-5 18.9 µM | KM12 15.8 µM | CCRF-CEM 26.4 µM | HCC 2998 15.5 µM | SF-295 17.3 µM | COLO 205 > 100 µM | HOP-62 23 µM
15.7 µM: HCT-15

COc1ccc2nc3ccccc3c(NCCCCCCN(C)CCCl)c2c1
0.221 µM: HCT-15
inactive: UACC-257 1.41 µM | A498 1.16 µM | OVCAR-3 1.19 µM | UO-31 1.36 µM | EKVX 1.39 µM | SNB-19 1.17 µM | TK-10 1.32 µM
active: HL-60 0.0312 µM | NCI-H522 0.242 µM | OVCAR-5 1.11 µM | RXF 393 0.367 µM | SK-MEL-2 0.293 µM | MOLT-4 < 0.01 µM | M14 0.834 µM | CAKI-1 0.314 µM | UACC-62 0.307 µM | SW-620 0.0583 µM | SK-MEL-28 0.986 µM | NCI-H226 0.104 µM | U-251 0.286 µM | Malme-3M 0.82 µM | NCI-H460 0.0569 µM | IGROV-1 0.163 µM | KM-20L2 0.172 µM | OVCAR-8 0.296 µM | DMS-114 0.166 µM | HT-29 0.122 µM | SNB-75 0.703 µM | SK-OV-3 0.664 µM | HOP-92 0.158 µM | M19-MEL 0.308 µM | RPMI-8226 0.0728 µM | HCT-116 0.0887 µM | LXFL 529 0.262 µM | NCI-H23 0.175 µM | OVCAR-4 1.09 µM | SN12C 0.0689 µM | SF-268 0.133 µM | ACHN 0.239 µM | DMS-273 0.0488 µM | LOX IMVI 0.162 µM | SF-539 0.474 µM | SNB-78 0.33 µM | DLD-1 0.164 µM | K562 0.0582 µM | 786-0 0.177 µM | A549 0.297 µM | SK-MEL-5 0.918 µM | KM12 0.27 µM | CCRF-CEM 0.0368 µM | HCC 2998 0.705 µM | SF-295 1 µM | XF498 0.2 µM | COLO 205 0.265 µM | HOP-62 1.05 µM

COc1ccc2nc(-c3ccc(O)cc3)ccc2c1
inactive: SR > 100 µM | UACC-257 > 100 µM | HL-60 > 100 µM | NCI-H522 > 100 µM | OVCAR-5 > 100 µM | RXF 393 > 100 µM | MOLT-4 > 100 µM | M14 > 100 µM | UACC-62 > 100 µM | HOP-18 > 100 µM | SW-620 > 100 µM | SK-MEL-28 > 100 µM | NCI-H226 > 100 µM | OVCAR-3 > 100 µM | Malme-3M > 100 µM | UO-31 > 100 µM | NCI-H460 > 100 µM | IGROV-1 > 100 µM | KM-20L2 > 100 µM | OVCAR-8 > 100 µM | DMS-114 > 100 µM | HT-29 > 100 µM | SNB-75 59.7 µM | SK-OV-3 > 100 µM | HOP-92 > 100 µM | M19-MEL > 100 µM | RPMI-8226 > 100 µM | HCT-116 > 100 µM | EKVX 95.5 µM | LXFL 529 > 100 µM | NCI-H23 > 100 µM | OVCAR-4 > 100 µM | SN12C > 100 µM | SF-268 1.22 µM | ACHN > 100 µM | LOX IMVI > 100 µM | SF-539 > 100 µM | SNB-78 97.1 µM | DLD-1 > 100 µM | K562 > 100 µM | 786-0 > 100 µM | SNB-19 > 100 µM | A549 > 100 µM | TK-10 > 100 µM | SK-MEL-5 > 100 µM | KM12 > 100 µM | CCRF-CEM 2.16 µM | HCC 2998 10.4 µM | SF-295 > 100 µM | COLO 205 > 100 µM | HOP-62 > 100 µM
